According to patent EP4324461A1, “(E)-N-CINAMOYLAMINOALKANOLES WITH MELANOGENESIS INHIBITORY ACTIVITY” (UNIWERSYTET JAGIELLONSKI, priority 2022, dated 2024):

Key:
Keratinocytes (HaCaT) [1] = experiment: Safety, MTT test in keratinocytes; assay type: cell-based; conditions: 48 hours
Description: (§1) In order to test the safety of the compounds, both normal human cells were used: keratinocytes (HaCaT), fibroblasts (BJ), primary melanocytes that occur in the skin, as well as human cancer cells: the hepatocarcinoma line HepG2 and the neuroblastoma line SH-SY5Y, which are considered a model for the assessment of hepatocytotoxicity and neurocytotoxicity. The concentrations of the tested compounds in the range of 250-100 µM were used in the studies. The cell lines used in the research were purchased from the American Type Culture Collection (ATCC) and were cultured in media recommended by the manufacturer with the addition of FBS and antibiotics in an incubator ensuring appropriate culture conditions, i.e. humidity, temperature and CO2 concentration. Cells were seeded into multiwell plates and incubated with the test compounds for 48 hours. After this time, MTT and LDH tests were performed to assess cell viability. The MTT test is based on the ability to transform the substrate: [3-(4,5-dimethyl-2-thiazolyl)-2,5-diphenyl-2H-tetrazolium bromide into a colored product only by living cells. The absorbance at 570 nm, which corresponds to the absorption maximum for the product, is directly proportional to cell viability. The LDH test is based on testing the activity of the enzyme lactate dehydrogenase in the culture medium, which is released from cells as a result of damage to the cell membrane, e.g. as a result of cell death. Triton X-100 was used as a positive control in the test. The determination is colorimetric, the substrate is transformed by the released enzyme into a colored product, an increase in absorbance indicates a larger amount of the released enzyme, and thus confirms greater damage to cell membranes. Tables 7 and 8 present the results obtained, which correspond to the viability of cells incubated with the compounds in relation to the viability of cells constituting a control sample, i.e. incubated with the solvent (DMSO) at the same concentration as in the case of the groups tested in the MTT test or in relation to the results obtained for the Triton X-100 positive control in the LDH test. They indicate that the compounds are safe at the concentrations tested. Table 7. Viability of tested normal human cell lines: keratinocytes (HaCaT), fibroblasts (BJ) and primary melanocytes after incubation with the tested compounds - determination in the MTT test (% of solvent control ± SD) and LDH (percentage of positive control - Triton X-100.

Keratinocytes (HaCaT) [2] = experiment: Safety, LDH test in keratinocytes; assay type: cell-based; conditions: 48 hours, positive control Triton X-100
Description: as §1

Primary melanocytes = experiment: Safety, LDH test in primary melanocytes; assay type: cell-based; conditions: 48 hours, positive control Triton X-100
Description: as §1

Hepatocarcinoma HepG2 = experiment: Safety, LDH test in HepG2; assay type: cell-based; conditions: 48 hours, positive control Triton X-100
Description: as §1

neuroblastoma SH-SY5Y [3] = experiment: Safety, MTT test in SH-SY5Y; assay type: cell-based; conditions: 48 hours
Description: as §1

neuroblastoma SH-SY5Y [4] = experiment: Safety, LDH test in SH-SY5Y; assay type: cell-based; conditions: 48 hours, positive control Triton X-100
Description: as §1

S. typhimurium TA100 = experiment: Ames microplate test, TA100; assay type: cell-based, Salmonella typhimurium; conditions: without S9;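 further: reference level is the mean solvent-control yellow wells plus SD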
Description: Bacteria were grown overnight in growth medium.
Table 9. Ames microplate test results.

[5] = tested on: Chinese hamster ovary cell line (CHO-K1); experiment: Cytotoxicity in CHO-K1 cells (MTT) before the micronucleus test; assay type: cell-based; conditions: 24 hours
Description: The assay was performed using a Chinese hamster ovary cell line (CHO-K1) purchased from the American Type Culture Collection (ATCC). The cells were cultured in F-12K medium with the addition of 10% fetal bovine serum (FBS) and antibiotics (streptomycin/penicillin) in an incubator at 37 °C and 5% CO2 concentration). Before the actual micronucleus test, a cytotoxicity assessment was performed to ensure that the actual test was performed only at safe concentrations. For this purpose, cells were transferred to 96-well plates and incubated with the tested compounds for 24 hours. After this time, the MTT test was performed and cell viability was assessed in comparison to the control group (cells cultured with DMSO at the same concentration as in the case of the tested samples).

[6] = tested on: Chinese hamster ovary cell line (CHO-K1); experiment: Genotoxicity in the micronucleus test in CHO-K1 cells; assay type: cell-based

O=C(/C=C/c1ccc(Cl)cc1)NCCO [H-427/21, (2E)-3-(4-chlorophenyl)-N-(2-hydroxyethyl)prop-2-enamide]
Keratinocytes (HaCaT) MTT (Keratinocytes (HaCaT) [1]; 100 µM): 100.47±3.65 % of solvent control | Keratinocytes (HaCaT) MTT (Keratinocytes (HaCaT) [1]; 150 µM): 98.15±2.63 % of solvent control | Keratinocytes (HaCaT) MTT (Keratinocytes (HaCaT) [1]; 200 µM): 99.24±3.00 % of solvent control | Keratinocytes (HaCaT) MTT (Keratinocytes (HaCaT) [1]; 250 µM): 89.94±4.66 % of solvent control | Keratinocytes (HaCaT) LDH (Keratinocytes (HaCaT) [2]; 100 µM): 2.76 percentage of positive control | Keratinocytes (HaCaT) LDH (Keratinocytes (HaCaT) [2]; 150 µM): 3.69 percentage of positive control | Keratinocytes (HaCaT) LDH (Keratinocytes (HaCaT) [2]; 200 µM): 6.50 percentage of positive control | Keratinocytes (HaCaT) LDH (Keratinocytes (HaCaT) [2]; 250 µM): 17.79 percentage of positive control | Primary melanocytes LDH (Primary melanocytes; 100 µM): 3.93 percentage of positive control | Primary melanocytes LDH (Primary melanocytes; 150 µM): 4.44 percentage of positive control | Primary melanocytes LDH (Primary melanocytes; 200 µM): 4.31 percentage of positive control | Primary melanocytes LDH (Primary melanocytes; 250 µM): 15.01 percentage of positive control | Hepatocarcinoma HepG2 LDH (Hepatocarcinoma HepG2; 100 µM): 3.09 percentage of positive control | Hepatocarcinoma HepG2 LDH (Hepatocarcinoma HepG2; 150 µM): 4.45 percentage of positive control | Hepatocarcinoma HepG2 LDH (Hepatocarcinoma HepG2; 200 µM): 5.98 percentage of positive control | Hepatocarcinoma HepG2 LDH (Hepatocarcinoma HepG2; 250 µM): 13.51 percentage of positive control | Neuroblastoma SH-SYSY MTT (neuroblastoma SH-SY5Y [3]; 100 µM): 100.48±3.67 % of solvent control | Neuroblastoma SH-SYSY MTT (neuroblastoma SH-SY5Y [3]; 150 µM): 100.96±2.72 % of solvent control | Neuroblastoma SH-SYSY MTT (neuroblastoma SH-SY5Y [3]; 200 µM): 101.30±2.94 % of solvent control | Neuroblastoma SH-SYSY MTT (neuroblastoma SH-SY5Y [3]; 250 µM): 102.60±9.66 % of solvent control | Neuroblastoma SH-SYSY LDH (neuroblastoma SH-SY5Y [4]; 100 µM): 3.09 percentage of positive control | Neuroblastoma SH-SYSY LDH (neuroblastoma SH-SY5Y [4]; 150 µM): 4.45 percentage of positive control | Neuroblastoma SH-SYSY LDH (neuroblastoma SH-SY5Y [4]; 200 µM): 5.98 percentage of positive control | Neuroblastoma SH-SYSY LDH (neuroblastoma SH-SY5Y [4]; 250 µM): 8.87 percentage of positive control

Cc1ccc(/C=C/C(=O)NCCCCCO)cc1 [H-415/21, (2E)-N-(5-hydroxypentyl)-3-(4-methylphenyl)prop-2-enamide]
Keratinocytes (HaCaT) MTT (Keratinocytes (HaCaT) [1]; 100 µM): 101.11±2.03 % of solvent control | Keratinocytes (HaCaT) MTT (Keratinocytes (HaCaT) [1]; 150 µM): 101.78±2.32 % of solvent control | Keratinocytes (HaCaT) MTT (Keratinocytes (HaCaT) [1]; 200 µM): 100.88±1.40 % of solvent control | Keratinocytes (HaCaT) MTT (Keratinocytes (HaCaT) [1]; 250 µM): 88.54±3.74 % of solvent control | Keratinocytes (HaCaT) LDH (Keratinocytes (HaCaT) [2]; 100 µM): 2.95 percentage of positive control | Keratinocytes (HaCaT) LDH (Keratinocytes (HaCaT) [2]; 150 µM): 6.70 percentage of positive control | Keratinocytes (HaCaT) LDH (Keratinocytes (HaCaT) [2]; 200 µM): 10.18 percentage of positive control | Keratinocytes (HaCaT) LDH (Keratinocytes (HaCaT) [2]; 250 µM): 18.19 percentage of positive control | Primary melanocytes LDH (Primary melanocytes; 100 µM): 4.22 percentage of positive control | Primary melanocytes LDH (Primary melanocytes; 150 µM): 6.01 percentage of positive control | Primary melanocytes LDH (Primary melanocytes; 200 µM): 8.34 percentage of positive control | Primary melanocytes LDH (Primary melanocytes; 250 µM): 14.94 percentage of positive control | Hepatocarcinoma HepG2 LDH (Hepatocarcinoma HepG2; 100 µM): 3.90 percentage of positive control | Hepatocarcinoma HepG2 LDH (Hepatocarcinoma HepG2; 150 µM): 7.24 percentage of positive control | Hepatocarcinoma HepG2 LDH (Hepatocarcinoma HepG2; 200 µM): 8.92 percentage of positive control | Hepatocarcinoma HepG2 LDH (Hepatocarcinoma HepG2; 250 µM): 15.47 percentage of positive control | Neuroblastoma SH-SYSY MTT (neuroblastoma SH-SY5Y [3]; 100 µM): 100.68±4.63 % of solvent control | Neuroblastoma SH-SYSY MTT (neuroblastoma SH-SY5Y [3]; 150 µM): 99.32±2.96 % of solvent control | Neuroblastoma SH-SYSY MTT (neuroblastoma SH-SY5Y [3]; 200 µM): 100.27±3.50 % of solvent control | Neuroblastoma SH-SYSY MTT (neuroblastoma SH-SY5Y [3]; 250 µM): 101.71±2.38 % of solvent control | Neuroblastoma SH-SYSY LDH (neuroblastoma SH-SY5Y [4]; 100 µM): 3.90 percentage of positive control | Neuroblastoma SH-SYSY LDH (neuroblastoma SH-SY5Y [4]; 150 µM): 7.24 percentage of positive control | Neuroblastoma SH-SYSY LDH (neuroblastoma SH-SY5Y [4]; 200 µM): 8.92 percentage of positive control | Neuroblastoma SH-SYSY LDH (neuroblastoma SH-SY5Y [4]; 250 µM): 10.55 percentage of positive control | Increase in the number of yellow wells compared to the reference level (S. typhimurium TA100; 0.5 mM): 0.92 | Increase in the number of yellow wells compared to the reference level (S. typhimurium TA100; 1.0 mM): 0.58 | Increase in the number of yellow wells compared to the reference level (S. typhimurium TA100; 2.0 mM): 0.75 | % Viability [mean] ([5]; 100 µM): 102.2% | % Viability [mean] ([5]; 150 µM): 102.8% | % Viability [mean] ([5]; 200 µM): 87.2% | DB (dicentric bridges in 1000 binucleate cells) ([6]; 100 µM): 1.5 ± 0.7 | MN (number of micronuclei in 1000 binucleate cells) ([6]; 100 µM): 12.5 ± 0.7 | NB (nuclear buds in 1000 binucleate cells) ([6]; 100 µM): 5.0 ± 1.4 | NDI (nuclear division index) ([6]; 100 µM): 1.54 | DB (dicentric bridges in 1000 binucleate cells) ([6]; 150 µM): 3.5 ± 2.1 | MN (number of micronuclei in 1000 binucleate cells) ([6]; 150 µM): 12.0 ± 2.8 | NB (nuclear buds in 1000 binucleate cells) ([6]; 150 µM): 5.5 ± 2.1 | NDI (nuclear division index) ([6]; 150 µM): 1.50 | DB (dicentric bridges in 1000 binucleate cells) ([6]; 200 µM): 2.5 ± 0.7 | MN (number of micronuclei in 1000 binucleate cells) ([6]; 200 µM): 11.5 ± 3.5 | NB (nuclear buds in 1000 binucleate cells) ([6]; 200 µM): 6.0 ± 1.4 | NDI (nuclear division index) ([6]; 200 µM): 1.52

O=C(/C=C/c1ccc(Cl)cc1)NCCCO [H-330/21, (2E)-3-(4-chlorophenyl)-N-(3-hydroxypropyl)prop-2-enamide]
Keratinocytes (HaCaT) MTT (Keratinocytes (HaCaT) [1]; 100 µM): 102.03±1.45 % of solvent control | Keratinocytes (HaCaT) MTT (Keratinocytes (HaCaT) [1]; 150 µM): 101.42±2.04 % of solvent control | Keratinocytes (HaCaT) MTT (Keratinocytes (HaCaT) [1]; 200 µM): 97.07±2.81 % of solvent control | Keratinocytes (HaCaT) MTT (Keratinocytes (HaCaT) [1]; 250 µM): 94.89±1.06 % of solvent control | Keratinocytes (HaCaT) LDH (Keratinocytes (HaCaT) [2]; 100 µM): 3.66 percentage of positive control | Keratinocytes (HaCaT) LDH (Keratinocytes (HaCaT) [2]; 150 µM): 5.33 percentage of positive control | Keratinocytes (HaCaT) LDH (Keratinocytes (HaCaT) [2]; 200 µM): 17.03 percentage of positive control | Keratinocytes (HaCaT) LDH (Keratinocytes (HaCaT) [2]; 250 µM): 24.24 percentage of positive control | Primary melanocytes LDH (Primary melanocytes; 100 µM): 5.63 percentage of positive control | Primary melanocytes LDH (Primary melanocytes; 150 µM): 13.09 percentage of positive control | Primary melanocytes LDH (Primary melanocytes; 200 µM): 10.91 percentage of positive control | Primary melanocytes LDH (Primary melanocytes; 250 µM): 18.10 percentage of positive control | Hepatocarcinoma HepG2 LDH (Hepatocarcinoma HepG2; 100 µM): 5.38 percentage of positive control | Hepatocarcinoma HepG2 LDH (Hepatocarcinoma HepG2; 150 µM): 4.90 percentage of positive control | Hepatocarcinoma HepG2 LDH (Hepatocarcinoma HepG2; 200 µM): 12.16 percentage of positive control | Hepatocarcinoma HepG2 LDH (Hepatocarcinoma HepG2; 250 µM): 19.02 percentage of positive control | Neuroblastoma SH-SYSY MTT (neuroblastoma SH-SY5Y [3]; 100 µM): 99.79±5.34 % of solvent control | Neuroblastoma SH-SYSY MTT (neuroblastoma SH-SY5Y [3]; 150 µM): 99.86±3.76 % of solvent control | Neuroblastoma SH-SYSY MTT (neuroblastoma SH-SY5Y [3]; 200 µM): 99.79±3.97 % of solvent control | Neuroblastoma SH-SYSY MTT (neuroblastoma SH-SY5Y [3]; 250 µM): 99.11±3.66 % of solvent control | Neuroblastoma SH-SYSY LDH (neuroblastoma SH-SY5Y [4]; 100 µM): 6.19 percentage of positive control | Neuroblastoma SH-SYSY LDH (neuroblastoma SH-SY5Y [4]; 150 µM): 4.90 percentage of positive control | Neuroblastoma SH-SYSY LDH (neuroblastoma SH-SY5Y [4]; 200 µM): 8.35 percentage of positive control | Neuroblastoma SH-SYSY LDH (neuroblastoma SH-SY5Y [4]; 250 µM): 13.41 percentage of positive control
